Experimental data from ChEMBL document CHEMBL5303304, “EUbOPEN Chemogenomics Library - IncuCyte” (2023).

What was measured:
Assay type in all cases: toxicity, cell-based
U2OS = test: Incucyte cell viability with U2OS; conditions: human, 10 µM, compound concentration 10 uM
Fibroblast = test: Incucyte cell viability with human fibroblast; conditions: 10 µM, compound concentration 10 uM
HEK-293T = test: Incucyte cell viability with HEK293T; conditions: human, 10 µM, compound concentration 10 uM
Note: unitless GR value; below 1 slowed growth and below 0 cell loss.

SMILES	Growth Rate (U2OS; 12 h, replicate number 2)	Growth Rate (U2OS; 18 h, replicate number 1)	Growth Rate (U2OS; 18 h, replicate number 2)	Growth Rate (U2OS; 24 h, replicate number 1)	Growth Rate (U2OS; 24 h, replicate number 2)	Growth Rate (Fibroblast; 0 h, replicate number 1)	Growth Rate (Fibroblast; 12 h, replicate number 2)	Growth Rate (Fibroblast; 18 h, replicate number 2)	Growth Rate (Fibroblast; 24 h, replicate number 2)	Growth Rate (HEK-293T; 0 h, replicate number 1)	Growth Rate (HEK-293T; 6 h, replicate number 1)	Growth Rate (HEK-293T; 6 h, replicate number 2)	Growth Rate (HEK-293T; 12 h, replicate number 1)	Growth Rate (HEK-293T; 12 h, replicate number 2)	Growth Rate (HEK-293T; 18 h, replicate number 1)	Growth Rate (HEK-293T; 18 h, replicate number 2)	Growth Rate (HEK-293T; 24 h, replicate number 1)	Growth Rate (HEK-293T; 24 h, replicate number 2)	Growth Rate (U2OS; 6 h, replicate number 1)	Growth Rate (U2OS; 0 h, replicate number 1)	also measured
CCCOc1cnc(CN/C=C2\C(=O)NC(=O)c3ccc(I)cc32)cc1O	0.75	0.45	0.38	0.07	0	0.29	-0.06	0.1	0.16	0.51	-0.81	-0.9	-0.75	-0.74	-0.63	-0.6	-0.58	-0.47	–	–	Growth Rate (U2OS; 0 h, replicate number 2): -1; Growth Rate (U2OS; 12 h, replicate number 1): 0.89; Growth Rate (Fibroblast; 6 h, replicate number 1): -0.88; Growth Rate (Fibroblast; 6 h, replicate number 2): -0.38; Growth Rate (Fibroblast; 12 h, replicate number 1): -0.79; Growth Rate (Fibroblast; 24 h, replicate number 1): 0.11
N[C@@H](CC(=O)O)Cn1nnc(-c2ccc(Oc3ncc(Cl)cc3F)cc2)n1	–	–	–	–	–	–	0.4	0.74	0.76	0.53	0.85	0.12	0.94	0.58	–	0.72	0.95	0.83	0.62	–	Growth Rate (Fibroblast; 24 h, replicate number 1): 0.95
CC(=O)Nc1ncc(CN2CCC[C@H](Cc3cc(C)nc(C)c3)C2)s1 [JNJ-65355394]	0.62	0.96	0.92	–	0.78	-1	0.75	0.94	–	–	0.82	–	0.83	–	–	–	0.91	–	-0.86	-1	Growth Rate (Fibroblast; 6 h, replicate number 2): 0.74; Growth Rate (Fibroblast; 12 h, replicate number 1): 0.9; Growth Rate (HEK-293T; 0 h, replicate number 2): -0.2
CN1CCN(c2ccc(Nc3ncc4cc5n(c4n3)C3(CCCCC3)CNC5=O)nc2)CC1 [TRILACICLIB]	–	0.92	–	0.84	0.98	-1	–	–	–	-0.98	–	–	–	–	–	–	–	0.99	0.29	0.26	–
CC(=O)c1ccc2c(c1)/C(=C(/NC1CCN(C)CC1)c1ccc3c(c1)OCO3)C(=O)N2	0.33	0.32	0.13	0.21	0.13	–	0.74	0.48	0.37	-0.53	-0.84	-0.95	-0.7	-0.83	-0.5	-0.63	-0.37	-0.45	0.57	–	Growth Rate (U2OS; 12 h, replicate number 1): 0.52; Growth Rate (Fibroblast; 18 h, replicate number 1): 0.78; Growth Rate (Fibroblast; 24 h, replicate number 1): 0.63; Growth Rate (HEK-293T; 0 h, replicate number 2): 0.02
CCn1c(-c2ccncc2)cc2c1CCNC2=O	0.44	0.29	0.12	0.13	0.08	-0.22	–	–	–	-0.57	0.22	-0.3	-0.65	-0.55	-0.57	-0.47	-0.56	-0.39	–	-0.56	Growth Rate (U2OS; 0 h, replicate number 2): 0.39; Growth Rate (U2OS; 12 h, replicate number 1): 0.78; Growth Rate (Fibroblast; 6 h, replicate number 1): -0.99; Growth Rate (HEK-293T; 0 h, replicate number 2): -0.66
CN(C)[C@H]1CCN(c2cc(C(F)(F)F)c(C#N)c(Nc3cccc(CCC(=O)O)c3)n2)C1.O=C(O)C(F)(F)F	0.78	–	0.89	–	0.88	–	0.75	0.93	0.72	–	0.73	–	0.95	–	0.94	–	–	–	0.63	0.61	Growth Rate (U2OS; 0 h, replicate number 2): 0.54; Growth Rate (U2OS; 6 h, replicate number 2): 0.38; Growth Rate (Fibroblast; 6 h, replicate number 1): 0.81; Growth Rate (Fibroblast; 6 h, replicate number 2): -0.53; Growth Rate (Fibroblast; 18 h, replicate number 1): 0.99; Growth Rate (HEK-293T; 0 h, replicate number 2): 0.79
CN1CCc2cc(Nc3ncc(C(F)(F)F)c(NCc4cc[nH]n4)n3)ccc2C1	0.56	0.84	0.37	0.58	0.22	-0.24	–	–	–	-0.94	–	–	–	0.73	0.42	0.47	0.29	0.14	–	–	Growth Rate (U2OS; 6 h, replicate number 2): 0.87; Growth Rate (Fibroblast; 0 h, replicate number 2): -0.64
CS(=O)(=O)c1ccc(-c2cnc(N)c(C(=O)Nc3ccccc3)n2)cc1	–	0.77	0.93	0.88	0.77	-0.93	–	–	0.74	–	-0.29	-0.17	-0.15	-0.14	0.01	-0.07	0.07	0.05	–	–	Growth Rate (U2OS; 12 h, replicate number 1): 0.87; Growth Rate (Fibroblast; 24 h, replicate number 1): 0.85; Growth Rate (HEK-293T; 0 h, replicate number 2): 0.8
COc1ccc(CSc2nnc(-c3ccc4ncsc4c3)o2)cc1C(F)(F)F	0.87	–	-0.67	–	0.95	-1	0.64	0.71	0.84	–	–	0.47	–	0.75	–	0.76	0.95	0.76	-0.59	-0.97	Growth Rate (U2OS; 0 h, replicate number 2): 0.81; Growth Rate (U2OS; 6 h, replicate number 2): 0.78; Growth Rate (Fibroblast; 6 h, replicate number 1): 0.92; Growth Rate (Fibroblast; 6 h, replicate number 2): 0.49; Growth Rate (Fibroblast; 12 h, replicate number 1): 0.88; Growth Rate (Fibroblast; 18 h, replicate number 1): 0.68; Growth Rate (Fibroblast; 24 h, replicate number 1): 0.64
COc1cc2ncnc(N[C@H](C)c3ccccc3)c2cc1OC1CCN(S(C)(=O)=O)CC1.Cl	–	0.8	–	0.74	–	0.4	0.61	–	–	0.37	–	–	–	0.89	–	–	–	–	0.77	0.65	Growth Rate (U2OS; 12 h, replicate number 1): 0.89; Growth Rate (Fibroblast; 6 h, replicate number 2): 0.39; Growth Rate (HEK-293T; 0 h, replicate number 2): -0.04
